The target of assay [1] is T1, human norepinephrine transporter (Homo sapiens, UniProt P23975).
T1 construct: host or cells: HEK-293
Briefly: hNET receptor binding ([125I]-RTI-55 radioligand binding). Conditions: membranes of HEK-293 cells transfected with human norepinephrine transporter, IC50 converted to Ki by Cheng-Prusoff, read-out: hNET (Ki). From the text:
(§1) The ability of the compounds of this invention to bind to the hNET and serotonin SERT receptor can be determined using conventional radiolig and receptor binding assays. The receptors can be heterologously expressed in cell lines and experiments conducted in membrane preparations from the cell lines using procedures outlined below. IC50 concentrations can be determined by nonlinear regression of concentration-dependent reduction in specific binding. The Cheng-Prussoff equation can be used to convert the IC50 to Ki concentrations.
Cell pastes of HEK-293 cells transfected with the human norepinephrine transporter were supplied by the Pfizer Ann Arbor Protein Expression and Production group. […] Aliquots of membranes (5 mg/ml protein) were stored in liquid nitrogen until used.
The reaction was incubated by gentle agitation for 90 min at room temperature and was terminated by filtration through Whatman GF/C filter plates using a Brandel 96-well plate harvester. […] Test compounds were run in duplicate, and specific binding was defined as the difference between binding in the presence and absence of 10 μM desipramine.
(§2) Excel and GraphPad Prism software were used for data calculation and analysis. IC50 values were converted to Ki values using the Cheng-Prusoff equation.

For assay [2], the target named is T2, human seritonin transporter (Homo sapiens, UniProt P31645).
T2 construct: host or cells: HEK-293
Kind of assay: hSERT receptor binding ([125I]-RTI-55 radioligand binding). As to conditions: membranes of HEK-293 cells transfected with human seritonin transporter, IC50 converted to Ki by Cheng-Prusoff, read-out: SERT (Ki).
Text: as §1
Cell pastes of HEK-293 cells transfected with the human seritonin transporter were supplied by the Pfizer Ann Arbor Protein Expression and Production group. […] Aliquots of membranes (5 mg/ml protein) were stored in liquid nitrogen until used.
The reaction was incubated by gentle agitation for 90 min at room temperature and was terminated by filtration through Whatman GF/C filter plates using a Brandel 96-well plate harvester. […] Test compounds were run in duplicate, and specific binding was defined as the difference between binding in the presence and absence of […] citalopram.
as §2

pKi: −log10 of the molar value.

T1 sequence (P23975 whole entry): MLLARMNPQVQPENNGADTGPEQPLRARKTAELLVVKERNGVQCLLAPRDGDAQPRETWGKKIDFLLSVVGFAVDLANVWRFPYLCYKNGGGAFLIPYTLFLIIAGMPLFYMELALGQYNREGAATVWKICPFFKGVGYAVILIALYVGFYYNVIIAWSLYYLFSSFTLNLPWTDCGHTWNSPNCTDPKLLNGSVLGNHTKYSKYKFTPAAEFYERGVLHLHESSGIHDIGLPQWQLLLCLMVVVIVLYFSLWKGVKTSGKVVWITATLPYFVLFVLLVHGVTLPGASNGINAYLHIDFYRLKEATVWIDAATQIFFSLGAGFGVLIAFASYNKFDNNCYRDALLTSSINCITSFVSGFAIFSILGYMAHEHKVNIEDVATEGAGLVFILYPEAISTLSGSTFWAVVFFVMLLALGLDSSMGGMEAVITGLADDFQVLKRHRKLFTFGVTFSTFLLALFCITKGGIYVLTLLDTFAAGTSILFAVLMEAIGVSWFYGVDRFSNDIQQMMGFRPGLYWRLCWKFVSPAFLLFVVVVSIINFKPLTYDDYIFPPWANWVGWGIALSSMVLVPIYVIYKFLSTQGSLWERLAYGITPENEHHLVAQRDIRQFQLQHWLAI
T2 sequence (P31645 whole entry): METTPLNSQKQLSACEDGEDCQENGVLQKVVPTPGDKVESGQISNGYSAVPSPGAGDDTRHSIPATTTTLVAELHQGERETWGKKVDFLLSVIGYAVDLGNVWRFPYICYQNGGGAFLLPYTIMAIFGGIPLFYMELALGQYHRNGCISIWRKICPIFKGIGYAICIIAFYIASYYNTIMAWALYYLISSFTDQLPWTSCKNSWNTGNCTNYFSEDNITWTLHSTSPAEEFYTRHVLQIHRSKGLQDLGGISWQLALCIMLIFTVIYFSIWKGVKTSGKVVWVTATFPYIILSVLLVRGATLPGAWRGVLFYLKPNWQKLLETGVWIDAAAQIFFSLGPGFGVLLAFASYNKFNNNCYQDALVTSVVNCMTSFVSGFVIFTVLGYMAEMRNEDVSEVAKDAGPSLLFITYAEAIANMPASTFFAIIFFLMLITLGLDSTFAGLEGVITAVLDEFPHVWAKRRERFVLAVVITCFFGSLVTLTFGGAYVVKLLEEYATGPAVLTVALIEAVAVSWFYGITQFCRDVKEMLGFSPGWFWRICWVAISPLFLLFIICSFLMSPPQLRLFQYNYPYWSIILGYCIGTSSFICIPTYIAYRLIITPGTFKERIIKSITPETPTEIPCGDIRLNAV

Usually pKi stands for −log10 of the Ki, conventionally taken in molar units. `CCOc1ccccc1O[C@@H](c1ccccn1)[C@@H]1CNCCO1` [Example 21, (S)-2-[(S)-(2-Ethoxy-phenoxy)-pyridin-2-yl-methyl]-morpholine]: the pKi in assay [1] was 8.17; in assay [2] it was 5.60.
Turning to `Fc1cccc(Cl)c1O[C@@H](c1ccccc1)[C@@H]1CNCCO1` [Example 60], the pKi is 7.85 in assay [1] and 7.11 in assay [2].
Regarding `CCOc1ccccc1O[C@@H](CC(C)C)[C@@H]1CNCCO1` [Example 38, (S)-2-[(S)-1-(2-Ethoxy-phenoxy)-3-methyl-butyl]-morpholine], the pKi in assay [1] is 6.29; in assay [2], 5.39.
For `N#Cc1ccccc1O[C@@H](c1ccccc1)[C@@H]1CNCCO1` [Example 93, 2-[(S)-(2S)-morpholin-2-yl(phenyl)methoxy]benzonitrile], in that order: 7.96 and 5.25.
Take `Fc1ccccc1OC(c1ccccn1)[C@@H]1CNCCO1` (single isomer, unassigned) [Example 121]: the pKi is 6.33 in assay [1] and no more than 5.00 in assay [2].
Consider `CCOc1ccccc1OC(c1cccc(F)c1)C1CNCCO1` (stereo in doubt) [Example 70, (R)-2-[(S)-(2-Ethoxy-phenoxy)-(3-fluoro-phenyl)-methyl]-morpholine], for which the figures for the pKi in assay [1] and in assay [2] were 7.96 and 6.09, respectively.
In the case of `CCOc1ccccc1OC(CC(C)C)[C@@H]1CNCCO1` (mixture of isomers) [Example 105, (2S)-2-[(1S)-1-(2-ethoxyphenoxy)-3-methylbutyl]morpholine], the results for the pKi in assay [1] and in assay [2] were 5.82 and 5.25, respectively.
Taken in the same sequence, the figures for `Clc1cccc(Cl)c1O[C@@H](c1ccccc1)[C@@H]1CNCCO1` [Example 62, (S)-2-[(S)-(2,6-Dichloro-phenoxy)-phenyl-methyl]-morpholine] were 7.92 and 7.19.
With `Fc1ccc(O[C@@H](c2ccccc2)[C@@H]2CNCCO2)cc1` [Example 69, (S)-2-[(S)-(4-Fluoro-phenoxy)-phenyl-methyl]-morpholine], the pKi in assay [1] is 7.59; in assay [2], 5.72.
Turning to `Fc1cccc(C(F)(F)F)c1O[C@@H](c1ccccc1)[C@@H]1CNCCO1` [Example 193, (2S)-2-[(S)-[2-fluoro-6-(trifluoromethyl)phenoxy](phenyl)methyl]morpholine], the pKi in assay [1] was 8.52; in assay [2], 6.15.
Regarding `c1ccc([C@H](Oc2cccc3c2CCC3)[C@@H]2CNCCO2)nc1` [Example 110, (2S)-2-[(S)-(2,3-dihydro-1H-inden-4-yloxy)(pyridin-2-yl)methyl]morpholine], the pKi in assay [1] was 8.07; in assay [2], 6.45.
With `COc1ncccc1O[C@@H](c1ccccc1)[C@@H]1CNCCO1` [Example 166, (2S)-2-[(S)-[(2-methoxypyridin-3-yl)oxy](phenyl)methyl]morpholine], the results for the negative logarithm of the Ki (pKi) in assay [1] and in assay [2] were 8.10 and 5.87, respectively.
As for `Fc1ccc(C2CC2)c(O[C@@H](c2ccccn2)[C@@H]2CNCCO2)c1` [Example 164, (2S)-2-[(S)-(2-cyclopropyl-5-fluorophenoxy)(pyridin-2-yl)methyl]morpholine], the pKi in assay [1] is 7.89; in assay [2], 5.51.
Taken in the same sequence, the figures for `Brc1ccccc1OC(c1ccccc1)[C@H]1CNCCO1` (stereo partly drawn) [Example 112, (2R)-2-[(2-bromophenoxy)(phenyl)methyl]morpholine] were 7.77 and 6.98.
Taken in the same sequence, the figures for `N#Cc1ccccc1OC(c1cccnc1)[C@@H]1CNCCO1` (stereo partly drawn) [Example 24, (2S,3R)-2-(Morpholin-2-yl-pyridin-3-yl-methoxy)-benzonitrile] were 6.68 and 5.11.
Regarding `CSc1cc(F)ccc1O[C@@H](c1ccccc1)[C@@H]1CNCCO1` [Example 198, (2S)-2-[(S)-[4-fluoro-2-(methylthio)phenoxy](phenyl)methyl]morpholine], the pKi was 7.52 in assay [1] and 7.21 in assay [2].
As for `CCCC(Oc1ccccc1OCC)[C@@H]1CNCCO1` (mixture of isomers) [Example 104, (2S)-2-[(1S)-1-(2-ethoxyphenoxy)butyl]morpholine], the pKi in assay [1] was 5.62; in assay [2], 5.01.
Turning to `CCOc1ccccc1OC(c1cccc[n+]1[O-])[C@@H]1CNCCO1` (stereo in doubt) [Example 100, (2S)-2-[(S)-(2-ethoxyphenoxy)(1-oxidopyridin-2-yl)methyl]morpholine], the pKi was 6.82 in assay [1] and no more than 5.00 in assay [2].
Take `CCOc1ncccc1OC(CC)[C@@H]1CNCCO1` (mixture of isomers) [Example 136, (2S)-2-{1-[(2-ethoxypyridin-3-yl)oxy]propyl}morpholine]: the pKi in assay [1] was 6.99; in assay [2], 5.21.
Turning to `Fc1ccc(O[C@@H](c2ccccc2)[C@@H]2CNCCO2)c(C2CC2)c1` [Example 119, (2S)-2-[(S)-(2-cyclopropyl-4-fluorophenoxy)(phenyl)methyl]morpholine], the pKi in assay [1] was 7.64; in assay [2], 7.18.
On to `COc1cccc([C@H](Oc2ccccc2Br)[C@@H]2CNCCO2)n1` [Example 187, (2S)-2-[(S)-(2-bromophenoxy)(6-methoxypyridin-2-yl)methyl]morpholine], for which the pKi in assay [1] is 7.82; in assay [2], 6.65.
Taken in the same sequence, the figures for `Fc1ccc(O[C@@H](c2ccccn2)[C@H]2CNCCO2)c(F)c1` [Example 28] were 5.07 and 5.85.
Consider `Fc1ccc([C@H](Oc2c(F)cccc2F)[C@H]2CNCCO2)cc1` [Example 66, (R)-2-[(S)-(2,6-Difluoro-phenoxy)-(4-fluoro-phenyl)-methyl]-morpholine], for which the pKi in assay [1] was 7.09; in assay [2], 6.75.
As for `Brc1ccccc1O[C@@H](c1ccccc1)[C@H]1CNCCO1` [Example 67, (R)-2-[(S)-(2-Bromo-phenoxy)-phenyl-methyl]-morpholine], the pKi in assay [1] was 7.68; in assay [2], 7.03.
`Fc1ccc(OC(c2cccnc2)C2CNCCO2)c(Cl)c1` (stereo in doubt) [Example 19, (S)-2-[(R)-(2-Chloro-4-fluoro-phenoxy)-pyridin-3-yl-methyl]-morpholine]: the figures for the pKi in assay [1] and in assay [2] were 5.99 and 7.13, respectively.
For `CCOc1c(F)cccc1OC(c1ccccc1)[C@@H]1CNCCO1` (stereo partly drawn) [Example 170, (2S)-2-[(2-ethoxy-3-fluorophenoxy)(phenyl)methyl]morpholine], the pKi was 7.96 in assay [1] and 5.31 in assay [2].
Take `Fc1ccccc1-c1ccccc1O[C@@H](c1ccccc1)[C@@H]1CNCCO1` [Example 86, (S)-2-[(S)-(2′-Fluoro-biphenyl-2-yloxy)-phenyl-methyl]-morpholine]: the pKi in assay [1] is 7.85; in assay [2], 5.09.
As to `CCOc1ccccc1O[C@@H](c1cc(CC)ccn1)[C@@H]1CNCCO1` [Example 142, (2S)-2-[(S)-(2-ethoxyphenoxy)(4-ethylpyridin-2-yl)methyl]morpholine], the figures for the pKi in assay [1] and in assay [2] were 7.31 and 5.34, respectively.
As to `Fc1cccc(Br)c1O[C@@H](c1ccccn1)[C@@H]1CNCCO1` [Example 186, (2S)-2-[(S)-(2-bromo-6-fluorophenoxy)(pyridin-2-yl)methyl]morpholine], the pKi is 8.10 in assay [1] and 5.90 in assay [2].
For `Cc1coc(C(Oc2c(F)cccc2F)[C@@H]2CNCCO2)n1` (stereo partly drawn) [Example 173, (2S)-2-[(2,6-difluorophenoxy)(4-methyl-1,3-oxazol-2-yl)methyl]morpholine], in that order: 7.92 and no more than 5.00.
As to `c1ccc(COc2ccccc2O[C@@H](c2ccccn2)[C@@H]2CNCCO2)cc1` [Example 102, (2S)-2-[(S)-[2-(benzyloxy)phenoxy](pyridin-2-yl)methyl]morpholine], the negative logarithm of the Ki (pKi) in assay [1] is 7.09; in assay [2] it was 5.24.
Consider `Cc1coc(C(Oc2c(F)cccc2F)[C@@H]2CNCCO2)n1` (mixture of isomers) [Example 134, (2S)-2-[(2,6-difluorophenoxy)(4-methyl-1,3-oxazol-2-yl)methyl]morpholine], for which the pKi is 7.74 in assay [1] and no more than 5.00 in assay [2].
Take `Fc1ccccc1OC(c1cccnc1)[C@@H]1CNCCO1` (mixture of isomers) [Example 23, (S)-2-[(S)-(2-Fluorophenoxy)-pyridin-3-yl-methyl]-morpholine]: the pKi in assay [1] was 7.29; in assay [2], 5.58.
Regarding `c1ccc(O[C@@H](c2ccccc2)[C@@H]2CNCCO2)cc1` [Example 80, (S)-2-((S)-Phenoxy-phenyl-methyl)-morpholine], the pKi in assay [1] is 8.12; in assay [2], 5.44.
For `CC(C)Oc1ccccc1O[C@@H](c1ccccc1)[C@@H]1CNCCO1` [Example 46, (S)-2-[(S)-(2-Isopropoxy-phenoxy)-phenyl-methyl]-morpholine], in that order: 8.19 and 5.25.

For the origin of these results see patent US7659394B2 (Pfizer Inc, priority 2004, dated 2010).
